Test systems include OVCAR-4 ovarian; RPMI-8226 leukemia; CAKI-1 renal; HCT-15 colon; SK-MEL-2 melanoma; BT-549 breast; K-562 leukemia; SK-MEL-28 melanoma; DU-145 prostate; NCI-H522 lung.
Holding throughout (test): inhibition of tumour cell growth, NCI panel, 48 h

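Results reflect a 48-hour exposure of cells in 96-well plates to compound at five concentrations. TGI denotes the concentration required for complete inhibition of growth.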 Some results are limits rather than exact numbers.

For the compound `C/C(=N\NC(=S)NCCCCNC(=S)N/N=C(\C)c1ccccn1)c1ccccc1`, the TGI with OVCAR-4 ovarian was > 54.2 µM; in the assay on RPMI-8226 leukemia it was 14.3 µM; with CAKI-1 renal, > 100 µM; with HCT-15 colon, > 100 µM; in the assay on SK-MEL-2 melanoma it was 97.3 µM; in the assay with BT-549 breast it was 29.5 µM. Also, the TGI in the assay on K-562 leukemia was > 100 µM; in the assay with SK-MEL-28 melanoma, > 100 µM; with DU-145 prostate, > 50 µM; with NCI-H522 lung it was 30.7 µM.
For `O=C(O)c1cc(=O)c2c(OCC(O)COc3cccc4oc(C(=O)O)cc(=O)c34)cccc2o1`, the TGI in the assay on OVCAR-4 ovarian is > 100 µM; in the assay on RPMI-8226 leukemia it was > 100 µM; in the assay with CAKI-1 renal, > 100 µM; in the assay on HCT-15 colon it was > 100 µM; in the assay on SK-MEL-2 melanoma it was > 79.2 µM; with BT-549 breast it was > 100 µM. The TGI is > 100 µM in the assay with K-562 leukemia, > 100 µM in the assay with SK-MEL-28 melanoma, > 100 µM in the assay with DU-145 prostate and > 75.2 µM with NCI-H522 lung.
In the case of `Cc1ccc([N+](=O)[O-])cc1S(=O)(=O)Nc1ccc(C2=NOC(c3cccs3)C2)cc1` (stereo not given), the TGI with OVCAR-4 ovarian was 32.3 µM; in the assay on RPMI-8226 leukemia, 94.5 µM; in the assay on CAKI-1 renal it was 70.4 µM; in the assay with HCT-15 colon it was 28.5 µM; in the assay on SK-MEL-2 melanoma, 28.3 µM; in the assay with BT-549 breast, 41 µM. The TGI in the assay on K-562 leukemia is 43.6 µM; in the assay on SK-MEL-28 melanoma, > 100 µM; in the assay with DU-145 prostate, 52.7 µM; in the assay with NCI-H522 lung, 21.2 µM.
For `OCCCNc1ncnc2[nH]ncc12`, the TGI in the assay on OVCAR-4 ovarian, with RPMI-8226 leukemia, in the assay with CAKI-1 renal, with HCT-15 colon, in the assay on SK-MEL-2 melanoma and with BT-549 breast was > 100 µM each time. Also, the TGI in the assay on K-562 leukemia, in the assay with SK-MEL-28 melanoma, with DU-145 prostate and in the assay on NCI-H522 lung was > 100 µM throughout.
Take `CCOC(=O)CCSc1nc2ccc(I)cc2c(=O)n1Cc1ccccc1`: the TGI in the assay on OVCAR-4 ovarian is > 77.1 µM; in the assay on RPMI-8226 leukemia it was 33.5 µM; in the assay on CAKI-1 renal, 9.59 µM; in the assay on HCT-15 colon, > 77.7 µM; in the assay on SK-MEL-2 melanoma, > 100 µM; with BT-549 breast, > 94.4 µM. The TGI in the assay with K-562 leukemia is > 100 µM; in the assay with SK-MEL-28 melanoma, > 100 µM; with DU-145 prostate, > 100 µM; in the assay with NCI-H522 lung, 52.5 µM.
For the compound `C/C(=N\NC(=S)N(C)C)c1nc2ncccc2[nH]1`, the TGI in the assay with OVCAR-4 ovarian was 10.6 µM; in the assay with RPMI-8226 leukemia, > 100 µM; with CAKI-1 renal, 3.75 µM; with HCT-15 colon it was > 100 µM; in the assay with SK-MEL-2 melanoma it was > 100 µM; in the assay with BT-549 breast it was 6.48 µM. Also, the TGI in the assay with K-562 leukemia was > 100 µM; in the assay with SK-MEL-28 melanoma, > 100 µM; in the assay with DU-145 prostate, > 100 µM; in the assay on NCI-H522 lung it was 91.7 µM.
In the case of `CC(C)CC(=O)NC(C(=O)NC(C(=O)NC(CC(C)C)C(O)CC(=O)NC(C)C(=O)NC(CC(C)C)C(O)CC(=O)O)C(C)C)C(C)C` (stereo not given), the TGI in the assay on OVCAR-4 ovarian, with RPMI-8226 leukemia, with CAKI-1 renal, with HCT-15 colon, with SK-MEL-2 melanoma and in the assay with BT-549 breast was > 100 µM in each case. The TGI with K-562 leukemia, in the assay on SK-MEL-28 melanoma, with DU-145 prostate and with NCI-H522 lung was > 100 µM throughout.
